Tests used:
Histone deacetylase = assay: Inhibition of HDAC (unknown origin); format: protein assay, Homo sapiens
B16-F10 = assay: Antiproliferative activity against mouse B16-F10 cells assessed reduction in cell proliferation; format: functional, cell-based
[1] = molecular target: Cyclin-dependent kinase 2 (Homo sapiens, UniProt P24941)
Description: Inhibition of CDK2 (unknown origin)

MCF7 [2] = assay: Antiproliferative activity against human MCF7 cells assessed reduction in cell proliferation; format: functional, cell-based
HCT-116 = assay: Anticancer activity against human HCT-116 cells assessed as reduction in cell viability incubated for 48 hrs by MTT assay; format: functional, cell-based; conditions: HCT-116, 48 h
MCF7 [3] = assay: Anticancer activity against human MCF7 cells assessed as reduction in cell viability incubated for 48 hrs by MTT assay; format: functional, cell-based; conditions: MCF7, 48 h
[4] = test system: Human immunodeficiency virus 1; assay: Antiviral activity against HIV1; format: functional, organism-based
HeLa = assay: Antiproliferative activity against human Hela cells assessed as reduction in cell viability by MTT assay; format: functional, cell-based
[5] = molecular target: Cyclin-dependent kinase 2/cyclin E (Homo sapiens, UniProt P24941); assay: Inhibition of CDK2/Cyclin E (unknown origin) expressed in baculovirus infected Sf9 cells using histone H1 as substrate in presence of gamma32P-ATP by scintillation counter analysis
CDK9/cyclin T1 = CDK9/cyclin T1 (Homo sapiens, UniProt P50750); assay: Inhibition of CDK9/cyclin T1 (unknown origin) assessed as inhibition constant; format: protein-complex assay
Chain of CDK9/cyclin T1 (O60563 whole entry): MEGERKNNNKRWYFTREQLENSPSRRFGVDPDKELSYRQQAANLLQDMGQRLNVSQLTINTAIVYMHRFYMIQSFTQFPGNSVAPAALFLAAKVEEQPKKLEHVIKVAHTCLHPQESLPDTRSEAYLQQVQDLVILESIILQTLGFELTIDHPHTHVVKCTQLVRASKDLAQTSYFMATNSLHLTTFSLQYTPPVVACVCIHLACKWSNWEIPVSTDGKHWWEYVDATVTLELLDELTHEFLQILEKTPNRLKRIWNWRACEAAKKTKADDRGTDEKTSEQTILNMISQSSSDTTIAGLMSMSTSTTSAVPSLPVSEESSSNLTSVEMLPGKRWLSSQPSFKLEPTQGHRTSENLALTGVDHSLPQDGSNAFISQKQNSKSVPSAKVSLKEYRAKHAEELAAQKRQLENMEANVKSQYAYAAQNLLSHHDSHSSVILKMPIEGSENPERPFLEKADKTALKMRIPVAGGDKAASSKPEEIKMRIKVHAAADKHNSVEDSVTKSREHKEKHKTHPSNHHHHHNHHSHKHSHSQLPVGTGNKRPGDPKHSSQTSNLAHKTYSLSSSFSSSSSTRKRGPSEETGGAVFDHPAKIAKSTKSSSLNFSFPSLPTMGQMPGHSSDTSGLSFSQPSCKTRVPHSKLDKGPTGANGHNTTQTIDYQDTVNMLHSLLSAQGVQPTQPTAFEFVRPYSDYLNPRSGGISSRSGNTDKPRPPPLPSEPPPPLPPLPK
Chain of CDK9/cyclin T1 (P50750 whole entry): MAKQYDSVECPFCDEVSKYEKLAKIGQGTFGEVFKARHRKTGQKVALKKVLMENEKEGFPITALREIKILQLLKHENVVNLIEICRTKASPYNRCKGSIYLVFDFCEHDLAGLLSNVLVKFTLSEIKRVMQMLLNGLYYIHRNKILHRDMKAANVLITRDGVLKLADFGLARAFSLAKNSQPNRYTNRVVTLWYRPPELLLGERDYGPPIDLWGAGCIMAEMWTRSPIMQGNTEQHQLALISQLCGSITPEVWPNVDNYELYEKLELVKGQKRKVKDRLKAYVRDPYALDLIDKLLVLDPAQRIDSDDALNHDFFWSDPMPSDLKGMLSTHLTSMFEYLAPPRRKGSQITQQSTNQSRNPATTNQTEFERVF

[6] = molecular target: Cyclin-dependent kinase 2/cyclin E1 (Homo sapiens, UniProt P24941); assay: Inhibition of CDK2/cyclin E1 (unknown origin) expressed in Sf9 cells using histone H1 as substrate in presence of ATP by microplate reader analysis
MCF7 [7] = assay: Antiproliferative activity against human MCF7 cells assessed as reduction in cell proliferation incubated for 3 days by calcein AM staining based fluorescent analysis; format: functional; conditions: MCF7, 72 h
K562 = assay: Antiproliferative activity against human K562 cells assessed as reduction in cell proliferation incubated for 3 days by calcein AM staining based fluorescent analysis; format: functional; conditions: K562, 72 h
[8] = molecular target: T1, CDK2/Cyclin A2 (Homo sapiens) (UniProt P24941+P20248); assay: Inhibition of CDK2/Cyclin A2 (unknown origin) at 10 uM by Kinase-Glo Plus luminescence kinase assay; format: protein-complex assay
[9] = test system: Panel NCI-60 (60 carcinoma cell lines); assay: Antiproliferative activity against human Panel NCI-60 (60 carcinoma cell lines) cells assessed as inhibition of cell growth at 0.00001 M incubated for 48 hrs by sulforhodamine B assay; format: functional; set-up: scale not given: the % may be the effect or the level left; conditions: dose 10 µM
CDK2/Cyclin A2 [10] = molecular target: T2, CDK2/Cyclin A2 (Homo sapiens, UniProt P24941); assay: Inhibition of CDK2/cyclin A2 (unknown origin) using histone as substrate in presence of ATP by luminescent ADP detection assay; format: protein-complex assay
HepG2 = assay: Antiproliferative activity against human HepG2 cells assessed as reduction in cell viability by MTT assay; format: functional, cell-based
MCF7 [11] = assay: Antiproliferative activity against human MCF7 cells assessed as reduction in cell viability by MTT assay; format: functional, cell-based
A549 = assay: Antiproliferative activity against human A549 cells assessed as reduction in cell viability by MTT assay; format: functional, cell-based
Caco-2 = assay: Antiproliferative activity against human Caco-2 cells assessed as reduction in cell viability by MTT assay; format: functional, cell-based
MCF7 [12] = assay: Antiproliferative activity against human MCF7 cells assessed as reduction in cell proliferation incubated for 48 hrs by Sulfo-Rhodamine-B stain (SRB) assay; format: functional, cell-based; conditions: MCF7, 48 h
[13] = test system: Panel NCI-60 (60 carcinoma cell lines); assay: Antiproliferative activity against human Panel NCI-60 (60 carcinoma cell lines) assessed as reduction in cell viability at 10 uM; format: functional
CDK2/Cyclin A2 [14] = molecular target: T2, CDK2/Cyclin A2; assay: Inhibition of CDK2/Cyclin A2 (unknown origin) incubated for 40 mins in presence of ATP by Kinase-Glo Plus luminescence kinase assay; format: protein-complex assay
[15] = molecular target: T1, CDK2/Cyclin A2 (Homo sapiens); assay: Inhibition of CDK2/Cyclin A2 (unknown origin) at 10 uM incubated for 40 mins in presence of ATP by Kinase-Glo Plus luminescence kinase assay; format: protein-complex assay
[16] = molecular target: Cyclin-dependent kinase 1 (Homo sapiens, UniProt P06493); assay: Inhibition of CDK1 (unknown origin) assessed as inhibition constant
Chain of Cyclin-dependent kinase 1 (P06493 whole entry): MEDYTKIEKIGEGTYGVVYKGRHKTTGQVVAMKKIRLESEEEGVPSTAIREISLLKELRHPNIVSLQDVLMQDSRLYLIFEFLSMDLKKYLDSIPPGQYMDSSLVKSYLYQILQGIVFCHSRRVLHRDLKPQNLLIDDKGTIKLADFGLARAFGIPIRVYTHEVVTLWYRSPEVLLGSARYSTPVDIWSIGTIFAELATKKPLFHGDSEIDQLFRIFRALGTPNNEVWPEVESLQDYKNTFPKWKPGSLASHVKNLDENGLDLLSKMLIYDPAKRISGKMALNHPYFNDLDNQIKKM

CDK7/Cyclin H/MNAT1 = CDK7/Cyclin H/MNAT1 (Homo sapiens, UniProt P50613); assay: Inhibition of CDK7/Cyclin H/MNAT1 (unknown origin) using 5-FAM-YSPTSPSYSPTSPSYSPTSPSKKK as substrate in presence of ATP by spectroscopic analysis; format: protein-complex assay
Chain of CDK7/Cyclin H/MNAT1 (P51946 whole entry): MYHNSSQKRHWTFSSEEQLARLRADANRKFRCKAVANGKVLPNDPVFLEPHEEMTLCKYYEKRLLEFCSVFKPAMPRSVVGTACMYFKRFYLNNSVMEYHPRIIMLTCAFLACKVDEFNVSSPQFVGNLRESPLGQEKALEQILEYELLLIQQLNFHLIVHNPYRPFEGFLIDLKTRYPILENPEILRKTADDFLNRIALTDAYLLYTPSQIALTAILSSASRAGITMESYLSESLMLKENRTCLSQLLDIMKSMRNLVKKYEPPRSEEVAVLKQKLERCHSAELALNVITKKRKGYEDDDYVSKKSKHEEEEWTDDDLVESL
Chain of CDK7/Cyclin H/MNAT1 (P50613 whole entry): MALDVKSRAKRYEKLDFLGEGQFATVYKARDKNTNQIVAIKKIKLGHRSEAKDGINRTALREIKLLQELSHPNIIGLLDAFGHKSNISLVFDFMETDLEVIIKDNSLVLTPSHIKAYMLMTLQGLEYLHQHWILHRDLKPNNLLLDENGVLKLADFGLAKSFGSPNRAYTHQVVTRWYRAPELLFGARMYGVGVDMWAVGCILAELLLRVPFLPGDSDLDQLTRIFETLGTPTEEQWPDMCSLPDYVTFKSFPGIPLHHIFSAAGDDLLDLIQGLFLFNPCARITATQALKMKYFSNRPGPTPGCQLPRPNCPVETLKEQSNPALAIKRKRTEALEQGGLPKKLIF
Chain of CDK7/Cyclin H/MNAT1 (P51948 whole entry, further chain): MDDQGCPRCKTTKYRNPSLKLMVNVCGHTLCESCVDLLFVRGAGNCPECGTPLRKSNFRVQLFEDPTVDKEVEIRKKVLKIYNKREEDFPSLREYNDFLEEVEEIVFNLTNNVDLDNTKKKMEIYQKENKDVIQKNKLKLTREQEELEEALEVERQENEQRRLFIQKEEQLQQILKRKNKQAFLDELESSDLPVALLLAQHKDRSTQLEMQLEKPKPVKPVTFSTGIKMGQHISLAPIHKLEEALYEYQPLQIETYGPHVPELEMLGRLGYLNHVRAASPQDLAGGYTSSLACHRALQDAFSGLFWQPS

O=C(CCCn1cc(CNC2CCCCC2)c(-c2ccccc2)n1)NO
IC50 (Histone deacetylase): 2.95 µM | IC50 (B16-F10): 3.9 µM | IC50 [1]: 4.63 µM | IC50 (MCF7 [2]): 1.12 µM

CC(=O)C(=NNc1ccc(-c2nc3ncccc3[nH]2)cc1)C(C)=O
IC50 (HCT-116): 1.69 µM | IC50 (MCF7 [3]): 2.11 µM

O=C1CC(=O)N(c2ccc(S(=O)(=O)Nc3ncccn3)cc2)C(=S)N1C(=O)c1ccccc1
IC50 [4]: 3.1 µM

CCOC(=O)C1=C(CCl)NC(=O)NC1c1ccc(OCc2cn(CC3=C(C(=O)OCC)C(c4ccc([N+](=O)[O-])cc4)NC(=O)N3)nn2)cc1 (stereo not drawn)
IC50 (HeLa): 18 µM

O=c1[nH]cc(-c2ccccc2F)c2nccn12
IC50 [5]: 3.2 µM

C/C(=N\N=C\c1ccccc1)c1c(O)c2ccccc2oc1=O
Ki (CDK9/cyclin T1): 0.00326 µM

Clc1ccccc1Nc1nc(SCCc2ccccc2)nc2[nH]ncc12
IC50 [6]: 7.8 µM | IC50 (MCF7 [7]): 19.2 µM | IC50 (K562): 19.9 µM

CC(=O)N1C(=O)C(C(=O)c2ccc(F)cc2)C(=O)N(c2ccc(S(=O)(=O)Nc3nccs3)cc2)C1=S (stereo not drawn)
IC50 [4]: 3.2 µM

Cc1cc(C)nc(NS(=O)(=O)c2ccc(N/C=C3\C(=O)NN=C3Nc3ccccc3)cc2)n1
inhibition [8]: 40%

CCCCCSc1nc(Nc2ccc(SC)cc2)c2cn[nH]c2n1
IC50 [6]: 8.8 µM | IC50 (MCF7 [7]): 19.2 µM | IC50 (K562): 19.9 µM

CCOC(=O)CSc1ncnc2c1c(-c1ccccc1)c(-c1ccccc1)n2-c1ccc(C)cc1
Activity [9]: <50%

O=C(c1cnn(-c2cc(NCc3ccccc3)ncn2)c1)N1CCOCC1
IC50 (CDK2/Cyclin A2 [10]): < 0.02 µM

CCOC(=O)C1=C(C)n2nc(Nc3ccccc3)c(C#N)c2NC1c1ccc(OC)cc1 (stereo not drawn)
IC50 (HepG2): 17.1 µM | IC50 (MCF7 [11]): 10.1 µM | IC50 (A549): 29.9 µM | IC50 (Caco-2): 25.2 µM

CCOC(=O)C1=C(Cn2cc(COc3ccccc3C3NC(=O)NC(CCl)=C3C(=O)OCC)nn2)NC(=O)NC1c1ccc(O)c(OC)c1 (stereo not drawn)
IC50 (HeLa): 18 µM

CCCCCSc1nc(OC(=O)c2ccccc2)c2cn[nH]c2n1
IC50 [6]: 14.8 µM | IC50 (MCF7 [7]): 18.9 µM | IC50 (K562): 19.8 µM

CCCCCSc1nc(OC(=O)c2ccco2)c2cn[nH]c2n1
IC50 [6]: 21.2 µM | IC50 (MCF7 [7]): 18.9 µM | IC50 (K562): 19.8 µM

O=[N+]([O-])c1cccc(Nc2nc(SCCc3ccccc3)nc3[nH]ncc23)c1
IC50 [6]: 8.7 µM | IC50 (MCF7 [7]): 19.2 µM | IC50 (K562): 19.9 µM

CN1CCN(C(=O)c2cnn(-c3cc(NCc4ccccc4)ncn3)c2)CC1
IC50 (CDK2/Cyclin A2 [10]): < 0.02 µM

NS(=O)(=O)c1ccc(S(=O)(=O)Nc2cccc3c(Cl)c[nH]c23)cc1
IC50 (MCF7 [12]): 36.3 µM

O=C(NCCc1ccccc1)c1cnn2c(-c3ccc(Cl)cc3)nc(NCCc3ccccc3)nc12
inhibition at 10 µM [13]: 33.3% | IC50 (CDK2/Cyclin A2 [14]): 1.85 µM | inhibition [15]: 82%

COc1ccc(C2CC(c3c(O)c4ccccc4oc3=O)=NN2c2ccccc2)cc1OC (stereo not drawn)
Ki (CDK9/cyclin T1): 0.00326 µM

CC(=O)N1N=C(c2c(O)c3ccccc3oc2=O)CC1c1ccccc1Cl (stereo not drawn)
Ki [16]: 0.00035 µM

O=c1[nH]cc(-c2ccc(O)cc2)c2nccn12
IC50 [5]: 1.3 µM

CN(C)C/C=C/C(=O)Nc1ccc(C(=O)N[C@@]2(C)CCC[C@@H](Nc3ncc(Cl)c(-c4c[nH]c5ccccc45)n3)C2)nc1
IC50 (CDK7/Cyclin H/MNAT1): 0.02 µM

CCOC(=O)C1=C(Cn2cc(COc3ccccc3C3NC(=O)NC(CCl)=C3C(=O)OCC)nn2)NC(=O)NC1c1ccccc1F (stereo not drawn)
IC50 (HeLa): 18 µM

Nc1ccc(/N=N/c2ccc(-c3nc4ncccc4[nH]3)cc2)cc1
IC50 (HCT-116): 1.83 µM | IC50 (MCF7 [3]): 2.84 µM

COc1ccc(NC(=O)c2cnn(-c3cc(NCc4ccccc4)ncn3)c2)cc1
IC50 (CDK2/Cyclin A2 [10]): < 0.02 µM

CCOC(=O)C1=C(Cn2cc(COc3ccccc3C3NC(=O)NC(CCl)=C3C(=O)OCC)nn2)NC(=O)NC1c1ccc([N+](=O)[O-])cc1 (stereo not drawn)
IC50 (HeLa): 18 µM

— ChEMBL document CHEMBL5230096, “A comprehensive insight on the recent development of Cyclic Dependent Kinase inhibitors as anticancer agents” (Eur J Med Chem, 2020)
